Reference: US10576062B2, “Carbamoyloxymethyl triazole cyclohexyl acids as LPA antagonists” (Bristol-Myers Squibb Company, priority 2016, dated 2020)

Target: T1, human LPA1 (Homo sapiens, UniProt Q92633)
T1 construct: expressed in transfected cells; host or cells: Chinese hamster ovary (CHO) cells
Test: LPA1 functional antagonist assay (LPA-induced calcium flux)
Format: cell-based
Conditions: CHO cells overexpressing human LPA1; inhibition of calcium flux induced by 10 nM LPA; read-out: hLPA1 IC50
Method in brief: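 CHO cells overexpressing human LPA1, loaded with calcium dye 30 min at 37° C, were preincubated 20 min at room temperature with compound (0.08 nM–5 μM, 0.5% DMSO) in HBSS/20 mM HEPES/0.1% fatty acid-free BSA.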

T1 sequence (Q92633 whole entry): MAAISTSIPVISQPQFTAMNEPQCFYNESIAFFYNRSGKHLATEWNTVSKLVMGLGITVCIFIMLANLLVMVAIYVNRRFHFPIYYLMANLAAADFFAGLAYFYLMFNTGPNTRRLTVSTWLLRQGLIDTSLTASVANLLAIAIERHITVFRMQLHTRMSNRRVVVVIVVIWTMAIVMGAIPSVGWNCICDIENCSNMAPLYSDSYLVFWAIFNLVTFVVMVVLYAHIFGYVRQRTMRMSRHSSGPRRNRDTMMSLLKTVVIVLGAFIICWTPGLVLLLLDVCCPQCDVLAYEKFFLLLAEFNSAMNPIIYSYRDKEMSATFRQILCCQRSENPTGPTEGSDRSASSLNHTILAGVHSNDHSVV

| IC50 [nM] | Compound |
| --- | --- |
| 69 | Cc1nc(-c2nnn(C)c2CCOC(=O)N(C)CC(C)C)ccc1O[C@H]1CCC[C@H](C(=O)O)C1 [Example 245, (1S,3S)-3-((6-(5-(2-((Isobutyl-(methyl)carbamoyl)oxy)ethyl)-1-methyl-1H-1,2,3-triazol-4-yl)-2-methylpyridin-3-yl)oxy)cyclohexane-1-carboxylic acid] |
| 88 | Cc1nc(-c2nnn(C)c2COC(=O)N(C)CC(C)(C)C)cnc1O[C@H]1CCC[C@H](C(=O)O)C1 [Example 231, (1S,3S)-3-((3-methyl-5-(1-methyl-5-(((methyl(neopentyl)carbamoyl)oxy)methyl)-1H-1,2,3-triazol-4-yl)pyrazin-2-yl)oxy)cyclohexane-1-carboxylic acid] |
| 18 | Cc1nc(-c2nnn(C)c2COC(=O)N(C)CC2CCCC2)cnc1O[C@H]1CCC[C@H](C(=O)O)C1 [Example 227, (1S,3S)-3-((5-(5-((((cyclopentylmethyl)(methyl)carbamoyl)oxy)methyl)-1-methyl-1H-1,2,3-triazol-4-yl)-3-methylpyrazin-2-yl)oxy)cyclohexane-1-carboxylic acid] |
| 29 | C[C@H]1C[C@@H]1CN(C)C(=O)OCc1c(-c2ccc(O[C@H]3CCC[C@H](C(=O)O)C3)cn2)nnn1C [Example 252, (1S,3S)-3-((6-(1-methyl-5-(((methyl(((1S,2S)-2-methylcyclopropyl)methyl)carbamoyl)oxy)methyl)-1H-1,2,3-triazol-4-yl)pyridin-3-yl)oxy)cyclohexane-1-carboxylic acid] |
| 72 | Cc1nc(-c2nnn(C)c2CCOC(=O)N(C)C2CCCC2)ccc1O[C@H]1CCC[C@H](C(=O)O)C1 [Example 243, (1S,3S)-3-((6-(5-(2-((Cyclopentyl-(methyl)carbamoyl)oxy)ethyl)-1-methyl-1H-1,2,3-triazol-4-yl)-2-methylpyridin-3-yl)oxy)cyclohexane-1-carboxylic acid] |
| 22 | CCc1nc(-c2nnn(C)c2COC(=O)N(C)CCC2CC2)ccc1O[C@H]1CCC[C@H](C(=O)O)C1 [Example 209, (1S,3S)-3-((6-(5-((((2-cyclopropylethyl)(methyl)carbamoyl)oxy)methyl)-1-methyl-1H-1,2,3-triazol-4-yl)-2-ethylpyridin-3-yl)oxy)cyclohexane-1-carboxylic acid] |
| 19 | Cc1nc(-c2nnn(C)c2COC(=O)N(C)CCC(C)C)cnc1O[C@H]1CCC[C@H](C(=O)O)C1 [Example 222, (1S,3S)-3-((5-(5-(((isopentyl(methyl)carbamoyl)oxy)methyl)-1-methyl-1H-1,2,3-triazol-4-yl)-3-methylpyrazin-2-yl)oxy)cyclohexane-1-carboxylic acid] |
| 68 | CN(CC1CCC1)C(=O)OCc1c(-c2cnc(O[C@H]3CCC[C@H](C(=O)O)C3)cn2)nnn1C [Example 214, (1S,3S)-3-((5-(5-((((cyclobutylmethyl)(methyl)carbamoyl)oxy)methyl)-1-methyl-1H-1,2,3-triazol-4-yl)pyrazin-2-yl)oxy)cyclohexane-1-carboxylic acid] |

Further lines, the compound ahead of its results:

| Compound | IC50 [nM] |
| --- | --- |
| CN(CCC1CC1)C(=O)OCc1c(-c2ccc(O[C@H]3CCC[C@H](C(=O)O)C3)cn2)nnn1C [Example 3, (1S,3S)-3-((6-(5-((((2-cyclopropylethyl)(methyl)carbamoyl)oxy)methyl)-1-methyl-1H-1,2,3-triazol-4-yl)pyridin-3-yl)oxy)cyclohexane-1-carboxylic Acid] | 19 |
| Cc1nc(-c2nnn(C)c2COC(=O)N(C)CC2CCC2)ccc1O[C@H]1CCC[C@H](c2nnn[nH]2)C1 [Example 16, (4-(5-(((1S,3 S)-3-(1H-tetrazol-5-yl)cyclohexyl)oxy)-6-methylpyridin-2-yl)-1-methyl-1H-1,2,3-triazol-5-yl)methyl (cyclobutylmethyl)(methyl)carbamate] | 22 |

Same assay, conditions: human LPA1; read-out: hLPA1 IC50

| IC50 [nM] | Compound |
| --- | --- |
| 20 | CN(C(=O)OCc1c(-c2ccc(O[C@H]3CCC[C@H](C(=O)O)C3)cn2)nnn1C)C1CC2(CC2)C1 [Example 183, (1S,3S)-3-((6-(1-methyl-5-(((methyl(spiro[2.3]hexan-5-yl)carbamoyl)oxy)methyl)-1H-1,2,3-triazol-4-yl)pyridin-3-yl)oxy)cyclohexane-1-carboxylic acid] |
| 83 | Cc1nc(-c2nnn(C)c2COC(=O)N2CCC(C3CC3)C2)ccc1O[C@H]1CCC[C@H](C(=O)O)C1 (mixture of isomers) [Example 164, (1S,3S)-3-((6-(5-(((3-cyclopropylpyrrolidine-1-carbonyl)oxy)methyl)-1-methyl-1H-1,2,3-triazol-4-yl)-2-methylpyridin-3-yl)oxy)cyclohexane-1-carboxylic acid] |
| 183 | Cc1nc(-c2nnn(C)c2COC(=O)N(C)C(C)(C)C)ccc1O[C@H]1CCC[C@H](C(=O)O)C1 [Example 170, (1S,3S)-3-((6-(5-(((tert-butyl(methyl)carbamoyl)oxy)methyl)-1-methyl-1H-1,2,3-triazol-4-yl)-2-methylpyridin-3-yl)oxy)cyclohexane-1-carboxylic acid] |
| 109 | CCCC1CCN(C(=O)OCc2c(-c3ccc(O[C@H]4CCC[C@H](C(=O)O)C4)c(C)n3)nnn2C)C1 (mixture of isomers) [Example 166, (1S,3S)-3-((2-methyl-6-(1-methyl-5-(((3-propylpyrrolidine-1-carbonyl)oxy)methyl)-1H-1,2,3-triazol-4-yl)pyridin-3-yl)oxy)cyclohexane-1-carboxylic acid] |

Same assay, conditions: read-out: hLPA1 IC50

| IC50 [nM] | Compound |
| --- | --- |
| 34 | CN(Cc1ccccc1)C(=O)OCc1c(-c2ccc(O[C@H]3CCC[C@H](C(=O)O)C3)c(F)c2)nnn1C [Example 26, (1S,3S)-3-(4-(5-(((benzyl(methyl)carbamoyl)oxy)methyl)-1-methyl-1H-1,2,3-triazol-4-yl)-2-fluorophenoxy)cyclohexane-1-carboxylic acid] |
| 67 | Cc1nc(-c2nnn(C)c2COC(=O)N(C)C2(C)CC(C)C2)ccc1O[C@H]1CCC[C@H](C(=O)O)C1 (single isomer, unassigned) [Example 106] |
| 20 | C[C@H](C1CC1)N(C)C(=O)OCc1c(-c2ccc(O[C@H]3CCC[C@H](C(=O)O)C3)cn2)nnn1C [Example 25, (1S,3S)-3-((6-(5-(((((R)-1-cyclopropylethyl)(methyl)carbamoyl)oxy)methyl)-1-methyl-1H-1,2,3-triazol-4-yl)pyridin-3-yl)oxy)cyclohexane-1-carboxylic acid] |
| 211 | Cc1nc(-c2nnn(C)c2COC(=O)N(C)Cc2ccccn2)ccc1O[C@H]1CCC[C@H](C(=O)O)C1 [Example 118, (1S,3S)-3-((2-methyl-6-(1-methyl-5-(((methyl(pyridin-2-ylmethyl)carbamoyl)oxy)methyl)-1H-1,2,3-triazol-4-yl)pyridin-3-yl)oxy)cyclohexane-1-carboxylic acid] |
| 70 | Cc1nc(-c2nnn(C)c2COC(=O)N(C)C2CC(F)(F)C2)ccc1O[C@H]1CCC[C@H](C(=O)O)C1 [Example 139, (1S,3S)-3-((6-(5-((((3,3-difluorocyclobutyl)(methyl)carbamoyl)oxy)methyl)-1-methyl-1H-1,2,3-triazol-4-yl)-2-methylpyridin-3-yl)oxy)cyclohexane-1-carboxylic acid] |
| 576 | Cc1nc(-c2nnn(C)c2COC(=O)NC23CC(C2)C3)ccc1O[C@H]1CCC[C@H](C(=O)O)C1 [Example 105, (1S,3S)-3-((6-(5-(((bicyclo[1.1.1]pentan-1-ylcarbamoyl)oxy)methyl)-1-methyl-1H-1,2,3-triazol-4-yl)-2-methylpyridin-3-yl)oxy)cyclohexane-1-carboxylic acid] |
| 16 | Cc1nc(-c2nnn(C)c2COC(=O)N(C)CCC(C)C)ccc1O[C@H]1CCC[C@H](C(=O)O)C1 [Example 34, (1S,3S)-3-((6-(5-(((isopentyl(methyl)carbamoyl)oxy)methyl)-1-methyl-1H-1,2,3-triazol-4-yl)-2-methylpyridin-3-yl)oxy)cyclohexane-1-carboxylic acid] |
| 94 | Cc1nc(-c2nnn(C)c2COC(=O)N(C)CC2CC(F)(F)C2)ccc1O[C@H]1CCC[C@H](C(=O)O)C1 [Example 145, (1S,3S)-3-((6-(5-(((((3,3-difluoro-cyclobutyl)methyl)(methyl)carbamoyl)oxy)methyl)-1-methyl-1H-1,2,3-triazol-4-yl)-2-methylpyridin-3-yl)oxy)cyclohexane-1-carboxylic acid] |
| 130 | CN(Cc1ccccc1)C(=O)OCc1c(-c2ccc(O[C@H]3CCC[C@H](C(=O)O)C3)cc2)nnn1C (racemic) [Example 60, (rac)-trans-3-(4-(5-(((benzyl(methyl)carbamoyl)oxy)methyl)-1-methyl-1H-1,2,3-triazol-4-yl)phenoxy)cyclohexane-1-carboxylic acid] |
| 18 | CN(Cc1ccccc1)C(=O)OCc1c(-c2ccc(O[C@H]3CCC[C@H](C(=O)O)C3)cn2)nnn1C [Example 22, (1S,3S)-3-((6-(5-(((benzyl(methyl)carbamoyl)oxy)methyl)-1-methyl-1H-1,2,3-triazol-4-yl)pyridin-3-yl)oxy)cyclohexane-1-carboxylic acid] |
| 19 | Cc1nc(-c2nnn(C)c2COC(=O)N(C)Cc2ccccc2F)ccc1O[C@H]1CCC[C@H](C(=O)O)C1 [Example 98, (1S,3S)-3-((6-(5-((((2-fluorobenzyl)(methyl)carbamoyl)oxy)methyl)-1-methyl-1H-1,2,3-triazol-4-yl)-2-methylpyridin-3-yl)oxy)cyclohexane-1-carboxylic acid] |
| 643 | Cc1nc(-c2nnn(C)c2COC(=O)N2CCOCC2)ccc1O[C@H]1CCC[C@H](C(=O)O)C1 [Example 114, (1S,3S)-3-((2-methyl-6-(1-methyl-5-(((morpholine-4-carbonyl)oxy)methyl)-1H-1,2,3-triazol-4-yl)pyridin-3-yl)oxy)cyclohexane-1-carboxylic acid] |
| 668 | Cc1nc(-c2nnn(C)c2COC(=O)N(C)CC2COCCN2)ccc1O[C@H]1CCC[C@H](C(=O)O)C1 (stereo partly drawn) [Example 125, (1S,3S)-3-((2-methyl-6-(1-methyl-5-(((methyl(morpholin-3-ylmethyl)carbamoyl)oxy)methyl)-1H-1,2,3-triazol-4-yl)pyridin-3-yl)oxy)cyclohexane-1-carboxylic acid] |
